Converted amounts (≈) assume the structure as drawn.
How the values were obtained:
S. marcescens TH-0447 = assay: MIC, agar plate dilution method, S. marcescens TH-0447; format: cell-based, Serratia marcescens; conditions: for MIC: Serratia marcescens, TH0447, S. marcescens TH-0447, AMK-resistant, read-out: minimal inhibitory concentration (MIC); for minimal inhibitory concentration (MIC): S. marcescens TH-0447, AMK-resistant
Procedure, shortened: (§1)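 Minimal inhibitory concentration (μg/mL) was determined by agar plate dilution following the Japan Society of Chemotherapy method.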

[1] = test system: A. baumannii ATCC BAA-1710; assay: MIC, agar plate dilution method, A. baumannii ATCC BAA-1710; format: cell-based, Acinetobacter baumannii; conditions: for MIC: Acinetobacter baumannii, ATCCBAA1710, A. baumannii ATCC BAA-1710, MDRA, read-out: minimal inhibitory concentration (MIC); for minimal inhibitory concentration (MIC): A. baumannii ATCC BAA-1710, MDRA
Procedure, shortened: as §1

P. aeruginosa PAO1 = assay: MIC, agar plate dilution method, P. aeruginosa PAO1; format: cell-based, Pseudomonas aeruginosa; conditions: for MIC: Pseudomonas aeruginosa, PAO1, P. aeruginosa PAO1, Sensitive bacterium, read-out: minimal inhibitory concentration (MIC); for minimal inhibitory concentration (MIC): P. aeruginosa PAO1, Sensitive bacterium
Procedure, shortened: as §1

S. marcescens GN6944 = assay: MIC, agar plate dilution method, S. marcescens GN6944; format: cell-based, Serratia marcescens; conditions: S. marcescens GN6944, GM-resistant; for MIC: Serratia marcescens, read-out: minimal inhibitory concentration (MIC)
Procedure, shortened: as §1

P. aeruginosa MSC01035 = assay: MIC, agar plate dilution method, P. aeruginosa MSC01035; format: cell-based, Pseudomonas aeruginosa; conditions: P. aeruginosa MSC01035, ABK-resistant; for MIC: Pseudomonas aeruginosa, read-out: minimal inhibitory concentration (MIC)
Procedure, shortened: as §1

[2] = test system: K. pneumoniae ATCC BAA-2146; assay: MIC, agar plate dilution method, K. pneumoniae ATCC BAA-2146; format: cell-based, Klebsiella pneumoniae; conditions: for MIC: Klebsiella pneumoniae, ATCCBAA2146, K. pneumoniae ATCC BAA-2146, NDM-producing strain, read-out: minimal inhibitory concentration (MIC); for minimal inhibitory concentration (MIC): K. pneumoniae ATCC BAA-2146, NDM-producing strain
Procedure, shortened: as §1

P. aeruginosa MSC17707 = assay: MIC, agar plate dilution method, P. aeruginosa MSC17707; format: cell-based, Pseudomonas aeruginosa; conditions: for MIC: Pseudomonas aeruginosa, MSC17707, P. aeruginosa MSC17707, AMK-resistant, read-out: minimal inhibitory concentration (MIC); for minimal inhibitory concentration (MIC): P. aeruginosa MSC17707, AMK-resistant
Procedure, shortened: as §1

E. coli JM109/pMW218 = assay: MIC, agar plate dilution method, E. coli JM109/pMW218; format: cell-based, Escherichia coli; conditions: for MIC: Escherichia coli, JM109/PMW218, E. coli JM109/pMW218, Sensitive bacterium, read-out: minimal inhibitory concentration (MIC); for minimal inhibitory concentration (MIC): E. coli JM109/pMW218, Sensitive bacterium
Procedure, shortened: as §1

P. aeruginosa PAO1/GN315 = assay: MIC, agar plate dilution method, P. aeruginosa PAO1/GN315; format: cell-based, Pseudomonas aeruginosa; conditions: for MIC: Pseudomonas aeruginosa, read-out: minimal inhibitory concentration (MIC), P. aeruginosa PAO1/GN315, AMK-resistant; for minimal inhibitory concentration (MIC): P. aeruginosa PAO1/GN315, AMK-resistant
Procedure, shortened: as §1

S. aureus RN4220 = assay: MIC, agar plate dilution method, S. aureus RN4220; format: cell-based, Staphylococcus aureus; conditions: for MIC: Staphylococcus aureus, RN4220, S. aureus RN4220, Sensitive bacterium, read-out: minimal inhibitory concentration (MIC); for minimal inhibitory concentration (MIC): S. aureus RN4220, Sensitive bacterium
Procedure, shortened: as §1

[3] = test system: K. pneumoniae ATCC BAA-1705; assay: MIC, agar plate dilution method, K. pneumoniae ATCC BAA-1705; format: cell-based, Klebsiella pneumoniae; conditions: for MIC: Klebsiella pneumoniae, ATCCBAA1705, K. pneumoniae ATCC BAA-1705, KPC-producing strain, read-out: minimal inhibitory concentration (MIC); for minimal inhibitory concentration (MIC): K. pneumoniae ATCC BAA-1705, KPC-producing strain
Procedure, shortened: as §1

S. aureus MF490 = assay: MIC, agar plate dilution method, S. aureus MF490; format: cell-based, Staphylococcus aureus; conditions: for MIC: Staphylococcus aureus, MRSA, read-out: minimal inhibitory concentration (MIC); for minimal inhibitory concentration (MIC): S. aureus MF490, MRSA
Procedure, shortened: as §1

S. aureus RN4220/pMS520 = assay: MIC, agar plate dilution method, S. aureus RN4220/pMS520; format: cell-based, Staphylococcus aureus; conditions: for MIC: Staphylococcus aureus, MRSA, read-out: minimal inhibitory concentration (MIC), S. aureus RN4220/pMS520, MRSA; for minimal inhibitory concentration (MIC): S. aureus RN4220/pMS520, MRSA
Procedure, shortened: as §1

E. faecium ATCC19434 = assay: MIC, agar plate dilution method, E. faecium ATCC19434; format: cell-based, Enterococcus faecium; conditions: for MIC: Enterococcus faecium, ATCC19434, E. faecium ATCC19434, read-out: minimal inhibitory concentration (MIC); for minimal inhibitory concentration (MIC): E. faecium ATCC19434
Procedure, shortened: as §1

For `CNC1C(O[C@H]2OC(CO)[C@@H](NC(CN)CN)[C@H](O)C2O)O[C@H]2CC(N)[C@@H](O[C@H]3CC[C@H](N)CC3N)OC2C1O` (stereo partly shown) [Compound T2-d, 4″-N-(1,3-diaminopropan-2-yl)-5,6-dideoxyapramycin], the MIC (S. marcescens TH-0447) was 8 µg/mL (≈ 13.8 µM), the MIC [1] was 8 µg/mL (≈ 13.8 µM) and the MIC (P. aeruginosa PAO1) was 4 µg/mL (≈ 6.9 µM). It also gave an MIC (S. marcescens GN6944) of 8 µg/mL (≈ 13.8 µM), an MIC (P. aeruginosa MSC01035) of 8 µg/mL (≈ 13.8 µM) and an MIC [2] of 2 µg/mL (≈ 3.45 µM). The MIC (P. aeruginosa MSC17707) was 8 µg/mL (≈ 13.8 µM), the MIC (E. coli JM109/pMW218) was 1 µg/mL (≈ 1.73 µM) and the MIC (P. aeruginosa PAO1/GN315) was 4 µg/mL (≈ 6.9 µM). For the same compound, the MIC (S. aureus RN4220) was 2 µg/mL (≈ 3.45 µM), the MIC [3] was 2 µg/mL (≈ 3.45 µM) and the MIC (S. aureus MF490) was 4 µg/mL (≈ 6.9 µM). The MIC (S. aureus RN4220/pMS520) was 1 µg/mL (≈ 1.73 µM) and the MIC (E. faecium ATCC19434) was 4 µg/mL (≈ 6.9 µM).
Work on `CNC1C(O[C@H]2OC(CO)[C@@H](NC(=N)N)[C@H](O)C2O)O[C@H]2CC(N)[C@@H](O[C@H]3CC[C@H](N)CC3N)OC2C1O` (stereo partly shown) [Compound T2-e, 4″-deamino-5,6-dideoxy-4″-guanidinoapramycin] yielded an MIC (S. marcescens TH-0447) of 4 µg/mL (≈ 7.28 µM), an MIC [1] of 4 µg/mL (≈ 7.28 µM) and an MIC (P. aeruginosa PAO1) of 4 µg/mL (≈ 7.28 µM). For the same compound, the MIC (S. marcescens GN6944) was 2 µg/mL (≈ 3.64 µM), the MIC (P. aeruginosa MSC01035) was 8 µg/mL (≈ 14.6 µM) and the MIC [2] was 0.5 µg/mL (≈ 0.91 µM). The MIC (P. aeruginosa MSC17707) was 4 µg/mL (≈ 7.28 µM), the MIC (E. coli JM109/pMW218) was 0.5 µg/mL (≈ 0.91 µM) and the MIC (P. aeruginosa PAO1/GN315) was 4 µg/mL (≈ 7.28 µM). For the same compound, the MIC (S. aureus RN4220) was 1 µg/mL (≈ 1.82 µM), the MIC [3] was 1 µg/mL (≈ 1.82 µM) and the MIC (S. aureus MF490) was 2 µg/mL (≈ 3.64 µM). It also gave an MIC (S. aureus RN4220/pMS520) of 0.5 µg/mL (≈ 0.91 µM) and an MIC (E. faecium ATCC19434) of 4 µg/mL (≈ 7.28 µM).
`CNC1C(OC2OC(CO)C(NC(=N)N)CC2O)OC2CC(N)C(OC3CC(O)C(N)CC3N)OC2C1O` (stereo not shown) [Compound U4-a, 4″-deamino-5,3″-dideoxy-4″-guanidinoapramycin] was tested, and the “minimal inhibitory concentration (MIC)” value (S. marcescens TH-0447) was 4 µg/mL (≈ 7.28 µM), the “minimal inhibitory concentration (MIC)” value [1] was 8 µg/mL (≈ 14.6 µM) and the “minimal inhibitory concentration (MIC)” value (P. aeruginosa PAO1) was 4 µg/mL (≈ 7.28 µM). For the same compound, the “minimal inhibitory concentration (MIC)” value (S. marcescens GN6944) was 2 µg/mL (≈ 3.64 µM), the “minimal inhibitory concentration (MIC)” value (P. aeruginosa MSC01035) was 8 µg/mL (≈ 14.6 µM) and the “minimal inhibitory concentration (MIC)” value [2] was 0.5 µg/mL (≈ 0.91 µM). The “minimal inhibitory concentration (MIC)” value (P. aeruginosa MSC17707) was 8 µg/mL (≈ 14.6 µM), the “minimal inhibitory concentration (MIC)” value (E. coli JM109/pMW218) was 0.5 µg/mL (≈ 0.91 µM) and the “minimal inhibitory concentration (MIC)” value (P. aeruginosa PAO1/GN315) was 4 µg/mL (≈ 7.28 µM). For the same compound, the “minimal inhibitory concentration (MIC)” value (S. aureus RN4220) was 1 µg/mL (≈ 1.82 µM), the “minimal inhibitory concentration (MIC)” value [3] was 1 µg/mL (≈ 1.82 µM) and the “minimal inhibitory concentration (MIC)” value (S. aureus MF490) was 4 µg/mL (≈ 7.28 µM). For the same compound, the “minimal inhibitory concentration (MIC)” value (S. aureus RN4220/pMS520) was 1 µg/mL (≈ 1.82 µM) and the “minimal inhibitory concentration (MIC)” value (E. faecium ATCC19434) was 4 µg/mL (≈ 7.28 µM).
For `CNCC(=O)N[C@@H]1C(CO)O[C@H](OC2O[C@H]3CC(N)[C@@H](O[C@@H]4C(N)C[C@@H](N)C(O)[C@H]4O)OC3C(O)C2NC)C(O)[C@H]1O` (stereo partly shown) [Compound V1-b, 4″-N-sarcosylapramycin], the MIC (S. marcescens TH-0447) was 16 µg/mL (≈ 26.2 µM), the MIC [1] was 8 µg/mL (≈ 13.1 µM) and the MIC (P. aeruginosa PAO1) was 4 µg/mL (≈ 6.55 µM). It also gave an MIC (S. marcescens GN6944) of 8 µg/mL (≈ 13.1 µM), an MIC (P. aeruginosa MSC01035) of 4 µg/mL (≈ 6.55 µM) and an MIC [2] of 1 µg/mL (≈ 1.64 µM). The MIC (P. aeruginosa MSC17707) was 4 µg/mL (≈ 6.55 µM), the MIC (E. coli JM109/pMW218) was 1 µg/mL (≈ 1.64 µM) and the MIC (P. aeruginosa PAO1/GN315) was 4 µg/mL (≈ 6.55 µM). For the same compound, the MIC (S. aureus RN4220) was 2 µg/mL (≈ 3.28 µM), the MIC [3] was 2 µg/mL (≈ 3.28 µM) and the MIC (S. aureus MF490) was 8 µg/mL (≈ 13.1 µM). The MIC (S. aureus RN4220/pMS520) was 2 µg/mL (≈ 3.28 µM) and the MIC (E. faecium ATCC19434) was 16 µg/mL (≈ 26.2 µM).
In the case of `CNC1C(O[C@H]2OC(CO)[C@@H](NC(=O)[C@H](C)N)[C@H](O)C2O)O[C@H]2CC(N)[C@@H](O[C@@H]3C(N)C[C@@H](N)C(O)[C@H]3O)OC2C1O` (stereo partly drawn) [Compound V1-c, 4″-N-(L-alanyl)apramycin], the “minimal inhibitory concentration (MIC)” value (S. marcescens TH-0447) was 16 µg/mL (≈ 26.2 µM), the “minimal inhibitory concentration (MIC)” value [1] was 8 µg/mL (≈ 13.1 µM) and the “minimal inhibitory concentration (MIC)” value (P. aeruginosa PAO1) was 16 µg/mL (≈ 26.2 µM). The “minimal inhibitory concentration (MIC)” value (S. marcescens GN6944) was 8 µg/mL (≈ 13.1 µM), the “minimal inhibitory concentration (MIC)” value (P. aeruginosa MSC01035) was 8 µg/mL (≈ 13.1 µM) and the “minimal inhibitory concentration (MIC)” value [2] was 2 µg/mL (≈ 3.28 µM). The “minimal inhibitory concentration (MIC)” value (P. aeruginosa MSC17707) was 8 µg/mL (≈ 13.1 µM), the “minimal inhibitory concentration (MIC)” value (E. coli JM109/pMW218) was 2 µg/mL (≈ 3.28 µM) and the “minimal inhibitory concentration (MIC)” value (P. aeruginosa PAO1/GN315) was 8 µg/mL (≈ 13.1 µM). The “minimal inhibitory concentration (MIC)” value (S. aureus RN4220) was 4 µg/mL (≈ 6.55 µM), the “minimal inhibitory concentration (MIC)” value [3] was 4 µg/mL (≈ 6.55 µM) and the “minimal inhibitory concentration (MIC)” value (S. aureus MF490) was 16 µg/mL (≈ 26.2 µM). For the same compound, the “minimal inhibitory concentration (MIC)” value (S. aureus RN4220/pMS520) was 4 µg/mL (≈ 6.55 µM) and the “minimal inhibitory concentration (MIC)” value (E. faecium ATCC19434) was 32 µg/mL (≈ 52.4 µM).

Reference: patent US11135234B2, “Effective aminoglycoside antibiotic for multidrug-resistant bacteria” (MICROBIAL CHEMISTRY RESEARCH FOUNDATION, priority 2015, dated 2021)
